Measurements from patent US9604989B2, “Imidazopyridazines as Akt kinase inhibitors” (Bayer Intellectual Property GmbH, priority 2011, dated 2017).
pIC50: −log10 of the molar value.

Experiments:
[1] = target: His-tagged human recombinant kinase full-length Akt1 (Homo sapiens (Human), UniProt P31749); test: Akt1 kinase assay (Akt1 TR-FRET assay); type: biochemical; conditions: 10 μM ATP, 60 min at 22° C., read-out: Akt1 median IC50
[2] = tested on: p-4E-BP1 at T70; test: Cellular p-4E-BP1-T70 assay in KPL-4 cells; type: cell-based; conditions: Homo sapiens, KPL4; KPL-4 breast tumour cell line, compound treatment 2 hours; read-out: P4EBP1-T70 median IC50
Procedure: The molecular mechanism of action was investigated in a set of experiments to assess the inhibition of the PI3K-AKT-mTOR pathway in responsive cell lines such as KPL-4 breast tumour cell line (PIK3CA^H1047R, HER2^O/E and hormone independent). The phospho-substrates of PI3K-AKT-mTOR axis were used as the read-outs to reflect pathway inhibition. Cells were seeded at 60-80% confluency per well in 96-well cell culture plates. After overnight incubation at 37° C. 5% CO2, cells were treated with compounds and vehicle at 37° C. for 2 hours. […] All measurements where at least done in duplicates and confirmed by independent repetition.

[3] = tested on: phospho-AKT at S473; test: Cellular p-AKT1/2/3-S473 assay in KPL-4 cells; type: cell-based; conditions: Homo sapiens, KPL4; KPL-4 breast tumour cell line, compound treatment 2 hours; read-out: pAKT-S473 median IC50
[4] = tested on: KPL-4 breast cancer cell line; test: Tumor cell proliferation assay (CellTiter-Glo), KPL-4; type: cell-based; conditions: Homo sapiens, KPL4, 72 h drug exposure, read-out: KLP-4 median IC50
Procedure: (§1) Biological Assay 4.0: Tumor Cell Proliferation Assays
(§2) Compounds were tested in a cell-based assay that measures the capacity of the compounds to inhibit tumour cell proliferation following a 72 h drug exposure. Cell viability is determined using CellTiter-Glow® (CTG, Promega, cat#G7571/2/3). The CellTiter-Glo® Luminescent Cell Viability Assay is a homogeneous method to determine the number of viable cells in culture.
(§3) Detection is based on using the luciferase reaction to measure the amount of ATP from viable cells. The amount of ATP in cells correlates with cell viability. Within minutes after a loss of membrane integrity, cells lose the ability to synthesize ATP, and endogenous ATPases destroy any remaining ATP; thus the levels of ATP fall precipitously.
(§4) For each cell line assayed, cells were plated onto a separate plate for determination of fluorescence at t=0 hour and t=72 hour time points. Following overnight incubation at 37° C., chemiluminescence values for the t=0 samples were determined after adding 10 μl medium and 100 μl CTG solution according to manufacture protocol. Plates for the t=72 hour time points were treated with compounds diluted into growth medium at ten times final concentration added in 10 μL to the cell culture plate. Cells were then incubated for 72 hours at 37° C. Chemiluminescence values for the t=72 hour samples were determined. […] Experiments were controlled using a reference compound as standard.

[5] = target: His-tagged human recombinant kinase full-length Akt2 (Homo sapiens (Human), UniProt P31751); test: Akt2 kinase assay (Akt2 TR-FRET assay); type: biochemical; conditions: 10 μM ATP, 60 min at 22° C., read-out: Akt2 median IC50
[6] = tested on: MCF-7 breast tumour cell line; test: Tumor cell proliferation assay (CellTiter-Glo), MCF-7; type: cell-based; conditions: Homo sapiens, MCF7, 72 h drug exposure, read-out: MCF-7 median IC50
Procedure: as §1, §2, §3, §4

His-tagged human recombinant kinase full-length Akt1, sequence (P31749 whole entry): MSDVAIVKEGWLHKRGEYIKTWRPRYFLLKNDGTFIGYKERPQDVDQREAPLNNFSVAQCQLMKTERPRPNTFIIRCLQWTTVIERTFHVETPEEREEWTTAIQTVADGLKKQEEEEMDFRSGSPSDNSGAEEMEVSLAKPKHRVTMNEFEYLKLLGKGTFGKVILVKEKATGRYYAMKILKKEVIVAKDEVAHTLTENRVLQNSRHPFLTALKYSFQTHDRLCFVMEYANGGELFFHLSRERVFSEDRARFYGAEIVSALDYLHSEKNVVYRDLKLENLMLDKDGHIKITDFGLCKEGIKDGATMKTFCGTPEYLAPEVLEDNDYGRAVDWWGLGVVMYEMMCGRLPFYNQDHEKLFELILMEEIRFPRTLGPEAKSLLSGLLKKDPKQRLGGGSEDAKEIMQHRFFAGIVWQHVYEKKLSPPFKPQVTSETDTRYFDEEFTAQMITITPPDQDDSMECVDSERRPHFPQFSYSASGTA
His-tagged human recombinant kinase full-length Akt2, sequence (P31751 whole entry): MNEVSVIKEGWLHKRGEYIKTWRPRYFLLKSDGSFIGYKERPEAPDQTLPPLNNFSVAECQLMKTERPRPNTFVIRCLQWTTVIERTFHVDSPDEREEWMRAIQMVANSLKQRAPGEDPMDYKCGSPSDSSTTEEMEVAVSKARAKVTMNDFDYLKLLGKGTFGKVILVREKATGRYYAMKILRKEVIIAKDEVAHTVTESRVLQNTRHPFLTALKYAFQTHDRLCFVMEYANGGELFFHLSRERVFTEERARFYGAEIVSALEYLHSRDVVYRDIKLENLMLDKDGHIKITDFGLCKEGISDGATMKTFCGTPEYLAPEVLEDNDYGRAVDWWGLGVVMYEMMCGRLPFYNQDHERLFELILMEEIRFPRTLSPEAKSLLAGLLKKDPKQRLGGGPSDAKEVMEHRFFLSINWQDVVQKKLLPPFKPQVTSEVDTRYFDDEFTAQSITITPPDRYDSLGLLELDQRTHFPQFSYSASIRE

Compound	pIC50 [1]	pIC50 [2]	pIC50 [3]	pIC50 [4]	pIC50 [5]	pIC50 [6]
COC(=O)COc1ccc2nc(-c3ccc(C4(N)CCC4)cc3)c(-c3ccccc3)n2n1 [Example 80, Methyl ({2-[4-(1-aminocyclobutyl)phenyl]-3-phenylimidazo[1,2-b]pyridazin-6-yl}oxy)acetate]	7.02	5.01	6.72	5.00	6.21	5.00
COc1cc(-c2cccnc2)c2nc(-c3ccc(C4(N)CCC4)cc3)c(-c3ccccc3)n2n1 [Example 14, 1-{4-[6-Methoxy-3-phenyl-8-(pyridin-3-yl)imidazo [1,2-b]pyridazin-2-yl]phenyl}cyclobutanamine]	8.01	6.49	6.66	5.72	7.19	5.74
COc1ccc2nc(-c3ccc(C4(N)CCC4)cc3)c(-c3ccccc3)n2n1 [Example 6, 1-[4-(6-Methyloxy-3-phenylimidazo[1,2-b]pyridazin-2-yl)phenyl]cyclobutanamine]	8.38	5.89	6.68	5.96	7.10	5.92
CC(=O)Nc1ccnn2c(-c3ccccc3)c(-c3ccc(C4(N)CCC4)cc3)nc12 [Example 49, N-{2-[4-(1-Aminocyclobutyl)phenyl]-3-phenylimidazo[1,2-b]pyridazin-8-yl}acetamide]	7.17	7.39	8.10	6.85	6.92	6.21
COc1cc(C(N)=O)nn2c(-c3ccccc3)c(-c3ccc(C4(N)CCC4)cc3)nc12 [Example 10, 2-[4-(1-Aminocyclobutyl)phenyl]-8-methoxy-3-phenylimidazo[1,2-b]-pyridazine-6-carboxamide]	8.59	7.55	8.62	7.31	8.39	7.41

Further compounds by rising pIC50 [1], results first:

pIC50 [1]	pIC50 [2]	pIC50 [3]	pIC50 [4]	pIC50 [5]	pIC50 [6]	Compound
6.80	5.60	6.28	5.70	6.80	5.74	CCc1cc(CC)c2nc(-c3ccc(C4(N)CCC4)cc3)c(-c3ccccc3)n2n1 [Example 16, 1-[4-(6,8-Diethyl-3-phenylimidazo[1,2-b]pyridazin-2-yl)phenyl]cyclobutanamine]
6.92	5.82	6.28	5.59	6.77	5.74	C=Cc1cc(-c2cc[nH]n2)c2nc(-c3ccc(C4(N)CCC4)cc3)c(-c3ccccc3)n2n1 [Example 20, 1-{4-[3-Phenyl-8-(1H-pyrazol-3-yl)-6-vinylimidazo [1,2-b]pyridazin-2-yl]phenyl}cyclobutanamine]
8.16	5.89	7.57	6.60	8.01	6.39	COc1cc(Br)nn2c(-c3ccccc3)c(-c3ccc(C4(N)CCC4)cc3)nc12 [Example 7, 1-[4-(6-Bromo-8-methyloxy-3-phenylimidazo[1,2-b]pyridazin-2-yl)phenyl]-cyclobutanamine]
8.37	5.77	6.64	5.74	7.37	5.70	COc1cc(-c2cc[nH]n2)c2nc(-c3ccc(C4(N)CCC4)cc3)c(-c3ccccc3)n2n1 [Example 73, 1-{4-[6-Methoxy-3-phenyl-8-(1H-pyrazol-3-yl)imidazo[1,2-b]pyridazin-2-yl]-phenyl}cyclobutanamine]
8.41	6.16	7.44	6.11	7.74	6.47	COc1cc(OC)c2nc(-c3ccc(C4(N)CCC4)cc3)c(-c3ccccc3)n2n1 [Example 9, 1-[4-(6,8-Dimethyloxy-3-phenylimidazo[1,2-b]pyridazin-2-yl)phenyl]-cyclobutanamine]
